The values that follow come from US10501461B2, “Tyrosine amide derivatives as Rho-kinase inhibitors” (CHIESI FARMACEUTICI S.P.A., priority 2017, dated 2019).

What is called Ki is the equilibrium dissociation constant of an inhibitor or competing ligand from its target. Read a high Ki as a looser hold on the target.

The target in one assay is Rho kinase 2 (ROCK-II) (Homo sapiens, UniProt O75116). Put plainly: In vitro Rho kinase inhibitory activity assay (ADP-Glo), Rho kinase 2. The format is biochemical. The following applies: 10 μM ATP, 25° C., expressed as range of activity. As to the method:
(§1) The effectiveness of compounds of the present invention to inhibit Rho kinase activity can be determined in a 10 μl assay containing 40 mM Tris pH7.5, 20 mM MgCl2 0.1 mg/ml BSA, 50 μM DTT and 2.5 μM peptide substrate (Myelin Basic Protein) using an ADP-Glo kit (Promega). Compounds were dissolved in DMSO such that the final concentration of DMSO was 1% in the assay. All reactions/incubations are performed at 25° C. Compound (2 ul) and either Rho kinase 1 or 2 (4 μl) were mixed and incubated for 30 mins. Reactions were initiated by addition of ATP (4 μl) such that the final concentration of ATP in the assay was 10 μM. After a 1 hour incubation 10 μl of ADP-Glo Reagent was added and after a further 45 minute incubation 20 ul of Kinase Detection Buffer was added and the mixture incubated for a further 30 minutes. The luminescent signal was measured on a luminometer. […] Compounds were tested in dose-response format and the inhibition of kinase activity was calculated at each concentration of compound. To determine the IC50 (concentration of compound required to inhibit 50% of the enzyme activity) data were fit to a plot of % inhibition vs Log10 compound concentration using a sigmoidal fit with a variable slope and fixing the maximum to 100% and the minimum to 0%. To determine the Ki values the Cheng-Prusoff equation was utilized (Ki=IC50/(1+[S]/Km).
(In general: ADP-Glo turns the ADP formed in a reaction into a luminescent signal.)

The target in the next assay is Rho kinase 1 (ROCK-I) (Homo sapiens, UniProt Q13464). Description: In vitro Rho kinase inhibitory activity assay (ADP-Glo), Rho kinase 1. The class given is biochemical. The following applies: 10 μM ATP, 25° C., expressed as range of activity. As to the method: as §1
Rho kinase 1 (ROCK-I), sequence (Q13464 whole entry): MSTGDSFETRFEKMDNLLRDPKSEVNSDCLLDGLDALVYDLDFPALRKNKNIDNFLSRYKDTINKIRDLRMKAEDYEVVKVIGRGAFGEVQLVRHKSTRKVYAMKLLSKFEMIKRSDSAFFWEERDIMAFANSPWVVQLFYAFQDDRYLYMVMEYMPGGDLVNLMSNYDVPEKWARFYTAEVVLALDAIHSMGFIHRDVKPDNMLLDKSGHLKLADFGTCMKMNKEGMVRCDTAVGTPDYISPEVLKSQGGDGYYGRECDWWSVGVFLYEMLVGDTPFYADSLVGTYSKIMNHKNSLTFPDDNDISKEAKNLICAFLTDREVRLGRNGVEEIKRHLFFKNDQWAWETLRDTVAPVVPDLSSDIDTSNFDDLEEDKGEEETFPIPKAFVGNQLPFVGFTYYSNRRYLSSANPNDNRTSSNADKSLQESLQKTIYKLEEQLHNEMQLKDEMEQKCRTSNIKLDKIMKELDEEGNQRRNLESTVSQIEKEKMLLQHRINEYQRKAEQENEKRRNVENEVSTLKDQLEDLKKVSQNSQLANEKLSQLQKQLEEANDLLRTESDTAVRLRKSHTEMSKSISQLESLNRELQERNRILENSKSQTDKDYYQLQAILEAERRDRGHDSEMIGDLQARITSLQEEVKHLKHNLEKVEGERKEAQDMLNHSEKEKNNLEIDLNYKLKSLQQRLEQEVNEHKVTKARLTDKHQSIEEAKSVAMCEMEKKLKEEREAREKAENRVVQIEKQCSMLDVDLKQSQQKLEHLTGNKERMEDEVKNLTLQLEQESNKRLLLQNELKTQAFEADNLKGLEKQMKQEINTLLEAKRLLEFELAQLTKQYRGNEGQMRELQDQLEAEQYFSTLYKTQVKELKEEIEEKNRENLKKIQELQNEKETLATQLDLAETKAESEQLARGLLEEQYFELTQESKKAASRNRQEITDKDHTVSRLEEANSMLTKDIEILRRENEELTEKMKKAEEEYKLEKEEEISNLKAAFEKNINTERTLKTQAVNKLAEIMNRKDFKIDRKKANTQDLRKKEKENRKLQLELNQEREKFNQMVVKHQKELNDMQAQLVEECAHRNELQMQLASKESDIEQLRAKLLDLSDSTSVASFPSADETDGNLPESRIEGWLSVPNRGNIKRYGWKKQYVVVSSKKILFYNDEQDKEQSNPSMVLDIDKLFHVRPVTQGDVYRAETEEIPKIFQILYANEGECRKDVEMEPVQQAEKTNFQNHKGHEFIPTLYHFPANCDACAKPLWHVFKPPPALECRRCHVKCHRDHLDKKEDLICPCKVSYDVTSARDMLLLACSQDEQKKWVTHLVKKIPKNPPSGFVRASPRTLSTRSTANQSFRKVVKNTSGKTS

Rho kinase 2 (ROCK-II), sequence (O75116 whole entry): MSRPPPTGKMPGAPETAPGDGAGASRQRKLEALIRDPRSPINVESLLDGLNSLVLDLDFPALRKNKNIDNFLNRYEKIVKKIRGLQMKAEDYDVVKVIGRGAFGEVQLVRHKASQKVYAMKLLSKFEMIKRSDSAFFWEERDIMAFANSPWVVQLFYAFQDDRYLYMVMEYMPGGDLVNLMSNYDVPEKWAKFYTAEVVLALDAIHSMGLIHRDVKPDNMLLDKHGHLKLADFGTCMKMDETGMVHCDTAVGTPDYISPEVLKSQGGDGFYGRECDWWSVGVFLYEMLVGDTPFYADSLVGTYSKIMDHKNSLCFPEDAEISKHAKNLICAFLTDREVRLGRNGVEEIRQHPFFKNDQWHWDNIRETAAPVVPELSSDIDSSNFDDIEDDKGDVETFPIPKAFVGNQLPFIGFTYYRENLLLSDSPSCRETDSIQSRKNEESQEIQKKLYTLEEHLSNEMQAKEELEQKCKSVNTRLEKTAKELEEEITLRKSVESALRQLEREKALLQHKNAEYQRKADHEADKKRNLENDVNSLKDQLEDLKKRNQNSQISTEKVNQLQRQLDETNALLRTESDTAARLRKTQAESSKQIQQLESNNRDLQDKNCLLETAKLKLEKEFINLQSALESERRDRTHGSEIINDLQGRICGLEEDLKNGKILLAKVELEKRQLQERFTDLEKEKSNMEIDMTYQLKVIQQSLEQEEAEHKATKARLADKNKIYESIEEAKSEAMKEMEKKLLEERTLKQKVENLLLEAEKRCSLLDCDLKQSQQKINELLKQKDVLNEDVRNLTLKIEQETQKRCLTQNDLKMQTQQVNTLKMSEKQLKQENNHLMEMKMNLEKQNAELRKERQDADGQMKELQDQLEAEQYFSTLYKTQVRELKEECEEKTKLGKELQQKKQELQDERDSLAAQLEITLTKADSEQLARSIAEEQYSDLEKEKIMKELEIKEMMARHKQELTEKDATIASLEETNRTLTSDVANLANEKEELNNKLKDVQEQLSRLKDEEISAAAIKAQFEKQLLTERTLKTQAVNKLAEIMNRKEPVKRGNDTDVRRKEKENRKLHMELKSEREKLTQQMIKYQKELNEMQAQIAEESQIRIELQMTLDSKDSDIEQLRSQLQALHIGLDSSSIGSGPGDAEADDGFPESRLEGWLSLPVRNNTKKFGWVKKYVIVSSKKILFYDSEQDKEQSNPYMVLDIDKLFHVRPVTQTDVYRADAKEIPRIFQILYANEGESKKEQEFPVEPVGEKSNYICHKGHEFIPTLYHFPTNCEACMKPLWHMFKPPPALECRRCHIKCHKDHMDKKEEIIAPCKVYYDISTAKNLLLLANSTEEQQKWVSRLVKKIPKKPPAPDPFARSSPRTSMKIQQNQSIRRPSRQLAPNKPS

As to `N[C@@H](Cc1ccc(Oc2ccnc3[nH]cc(I)c23)cc1)C(=O)NC1CCCCC1` [Example 190, (S)-2-amino-N-cyclohexyl-3-(4-((3-iodo-1H-pyrrolo[2,3-b]pyridin-4-yl)oxy)phenyl)propanamide], the Ki at Rho kinase 2 (ROCK-II) and on Rho kinase 1 (ROCK-I) was under 3 nM each time.
Turning to `CN(C)C(=O)C(Cc1ccc(Oc2ccnc3[nH]ccc23)cc1)NC(=O)C1CCNC1` (centres unmarked) [Example 178, N-(3-(4-((1H-pyrrolo[2,3-b]pyridin-4-yl)oxy)phenyl)-1-(dimethylamino)-1-oxopropan-2-yl)pyrrolidine-3-carboxamide], the inhibitory constant (Ki) at Rho kinase 2 (ROCK-II) and on Rho kinase 1 (ROCK-I) was over 30 nM each time.
For `Cc1c[nH]c2nccc(Oc3ccc(CC(N)C(=O)NCCc4ccncc4)cc3F)c12` (centres unmarked) [Example 57, 2-amino-3-(3-fluoro-4-((3-methyl-1H-pyrrolo[2,3-b]pyridin-4-yl)oxy)phenyl)-N-(2-(pyridin-4-yl)ethyl)propanamide], the Ki at Rho kinase 2 (ROCK-II) and on Rho kinase 1 (ROCK-I) was under 3 nM each time.
As to `N[C@@H](Cc1ccc(Oc2ccnc3[nH]cc(CCO)c23)cc1)C(=O)N1CCN(Cc2ccccc2)CC1` [Example 216, (S)-2-amino-1-(4-benzylpiperazin-1-yl)-3-(4-((3-(2-hydroxyethyl)-1H-pyrrolo[2,3-b]pyridin-4-yl)oxy)phenyl)propan-1-one], the Ki on Rho kinase 2 (ROCK-II) and on Rho kinase 1 (ROCK-I) was under 3 nM each time.
As to `Cc1c[nH]c2nccc(Oc3ccc(C[C@@H](N)C(=O)NC4CCOCC4)cc3F)c12` [Example 55, (R)-2-amino-3-(3-fluoro-4-((3-methyl-1H-pyrrolo[2,3-b]pyridin-4-yl)oxy)phenyl)-N-(tetrahydro-2H-pyran-4-yl)propanamide], the Ki at Rho kinase 2 (ROCK-II) and at Rho kinase 1 (ROCK-I) was 3 to 30 nM each time.
As to `Cc1c[nH]c2nccc(Oc3ccc(C[C@H](N)C(=O)N4CC=C(c5ccccc5)CC4)cc3F)c12` [Example 21, (S)-2-amino-3-(3-fluoro-4-((3-methyl-1H-pyrrolo[2,3-b]pyridin-4-yl)oxy)phenyl)-1-(4-phenyl-5,6-dihydropyridin-1(2H)-yl)propan-1-one], the inhibition constant (Ki) on Rho kinase 2 (ROCK-II) and on Rho kinase 1 (ROCK-I) was under 3 nM in each case.
Consider `Cc1c[nH]c2nccc(Oc3ccc(C[C@H](N)C(=O)N4CCN(Cc5ccccn5)CC4)cc3F)c12` [Example 27, (S)-2-amino-3-(3-fluoro-4-((3-methyl-1H-pyrrolo[2,3-b]pyridin-4-yl)oxy)phenyl)-1-(4-(pyridin-2-ylmethyl)piperazin-1-yl)propan-1-one], for which the Ki at Rho kinase 2 (ROCK-II) and on Rho kinase 1 (ROCK-I) was under 3 nM each time.
With `Cc1c[nH]c2nccc(Oc3ccc(C[C@H](N)C(=O)N(C)C4CCCCC4)cc3)c12` [Example 134, (S)-2-amino-N-cyclohexyl-N-methyl-3-(4-((3-methyl-1H-pyrrolo[2,3-b]pyridin-4-yl)oxy)phenyl)propanamide], the Ki on Rho kinase 2 (ROCK-II) and on Rho kinase 1 (ROCK-I) was under 3 nM each time.
Turning to `Cc1c[nH]c2nccc(Oc3ccc(C[C@H](N)C(=O)N4CCC(O)(Cc5ccccc5)CC4)cc3F)c12` [Example 9, (S)-2-amino-1-(4-benzyl-4-hydroxypiperidin-1-yl)-3-(3-fluoro-4-((3-methyl-1H-pyrrolo[2,3-b]pyridin-4-yl)oxy)phenyl)propan-1-one], the Ki on Rho kinase 2 (ROCK-II) and at Rho kinase 1 (ROCK-I) was under 3 nM each time.
As for `Cc1c[nH]c2ncnc(Oc3ccc(C[C@H](N)C(=O)N4CCN(C)CC4)cc3F)c12` [Example 118, (S)-2-amino-3-(3-fluoro-4-((5-methyl-7H-pyrrolo[2,3-d]pyrimidin-4-yl)oxy)phenyl)-1-(4-methylpiperazin-1-yl)propan-1-one], the Ki on Rho kinase 2 (ROCK-II) and on Rho kinase 1 (ROCK-I) was 3 to 30 nM each time.
`N[C@H](Cc1ccc(Oc2ccnc3[nH]ccc23)cc1)C(=O)NC1CCOCC1` [Example 100, (R)-3-(4-((1H-pyrrolo[2,3-b]pyridin-4-yl)oxy)phenyl)-2-amino-N-(tetrahydro-2H-pyran-4-yl)propanamide]: the Ki at Rho kinase 2 (ROCK-II) and at Rho kinase 1 (ROCK-I) was over 30 nM in each case.
As for `N[C@@H](Cc1ccc(Oc2ccnc3[nH]ccc23)c(F)c1)C(=O)Nc1ccccc1` [Example 147, (S)-3-(4-((1H-pyrrolo[2,3-b]pyridin-4-yl)oxy)-3-fluorophenyl)-2-amino-N-phenylpropanamide], the Ki on Rho kinase 2 (ROCK-II) is under 3 nM; on Rho kinase 1 (ROCK-I) it was 3 to 30 nM.
On the same counts, the results for `CN(C)C(Cc1ccc(Oc2ccnc3[nH]ccc23)cc1)C(=O)NC1CCCCC1` (centres unmarked) [Example 183, 3-(4-((1H-pyrrolo[2,3-b]pyridin-4-yl)oxy)phenyl)-N-cyclohexyl-2-(dimethylamino)propanamide] are 3 to 30 nM and over 30 nM.
For the molecule `Cc1c[nH]c2nccc(Oc3ccc(C[C@@H](N)C(=O)Nc4ccccc4)cc3)c12` [Example 138, (R)-2-amino-3-(4-((3-methyl-1H-pyrrolo[2,3-b]pyridin-4-yl)oxy)phenyl)-N-phenylpropanamide], the Ki at Rho kinase 2 (ROCK-II) and on Rho kinase 1 (ROCK-I) was 3 to 30 nM throughout.
As for `Cc1c[nH]c2nccc(Oc3ccc(C[C@H](N)C(=O)N4CC[C@@H](N(C)C)C4)cc3F)c12` [Example 43, (S)-2-amino-1-((R)-3-(dimethylamino)pyrrolidin-1-yl)-3-(3-fluoro-4-((3-methyl-1H-pyrrolo[2,3-b]pyridin-4-yl)oxy)phenyl)propan-1-one], the Ki at Rho kinase 2 (ROCK-II) and on Rho kinase 1 (ROCK-I) was under 3 nM throughout.
Take `CN1CCC(NC(=O)[C@@H](N)Cc2ccc(Oc3ccnc4[nH]cc(-c5cncs5)c34)c(F)c2)CC1` [Example 205, (S)-2-amino-3-(3-fluoro-4-((3-(thiazol-5-yl)-1H-pyrrolo[2,3-b]pyridin-4-yl)oxy)phenyl)-N-(1-methylpiperidin-4-yl)propanamide]: the Ki at Rho kinase 2 (ROCK-II) and at Rho kinase 1 (ROCK-I) was under 3 nM throughout.
`Cc1c[nH]c2nccc(Oc3ccc(CC(N)C(=O)N4CCn5cncc5C4)cc3F)c12` (centres unmarked) [Example 81, 2-amino-1-(5,6-dihydroimidazo[1,5-a]pyrazin-7(8H)-yl)-3-(3-fluoro-4-((3-methyl-1H-pyrrolo[2,3-b]pyridin-4-yl)oxy)phenyl)propan-1-one]: the Ki at Rho kinase 2 (ROCK-II) and at Rho kinase 1 (ROCK-I) was under 3 nM in each case.
Take `Cc1c[nH]c2nccc(Oc3ccc(C[C@H](N)C(=O)N4CCC(CN(C)C)CC4)cc3F)c12` [Example 45, (S)-2-amino-1-(4-((dimethylamino)methyl)piperidin-1-yl)-3-(3-fluoro-4-((3-methyl-1H-pyrrolo[2,3-b]pyridin-4-yl)oxy)phenyl)propan-1-one]: the Ki on Rho kinase 2 (ROCK-II) and on Rho kinase 1 (ROCK-I) was under 3 nM in each case.
With `N#Cc1c[nH]c2ncnc(Oc3ccc(C[C@H](N)C(=O)N4CCN(Cc5ccccc5)CC4)cc3F)c12` [Example 130, (S)-4-(4-(2-amino-3-(4-benzylpiperazin-1-yl)-3-oxopropyl)-2-fluorophenoxy)-7H-pyrrolo[2,3-d]pyrimidine-5-carbonitrile], the Ki on Rho kinase 2 (ROCK-II) and at Rho kinase 1 (ROCK-I) was under 3 nM in each case.
In the case of `Cc1c[nH]c2nccc(Oc3ccc(CC(N)C(=O)N4CCN(Cc5ccncc5)CC4)cc3F)c12` (centres unmarked) [Example 51, 2-amino-3-(3-fluoro-4-((3-methyl-1H-pyrrolo[2,3-b]pyridin-4-yl)oxy)phenyl)-1-(4-(pyridin-4-ylmethyl)piperazin-1-yl)propan-1-one], the Ki on Rho kinase 2 (ROCK-II) and on Rho kinase 1 (ROCK-I) was under 3 nM throughout.
In the case of `N[C@H](Cc1cc(F)c(Oc2ccnc3[nH]ccc23)c(F)c1)C(=O)NC1CCCCC1` [Example 229, (R)-3-(4-((1H-pyrrolo[2,3-b]pyridin-4-yl)oxy)-3,5-difluorophenyl)-2-amino-N-cyclohexylpropanamide], the Ki on Rho kinase 2 (ROCK-II) and at Rho kinase 1 (ROCK-I) was 3 to 30 nM in each case.
For `Cc1c[nH]c2nccc(Oc3ccc(C[C@H](N)C(=O)N4CC(CN(C)C)C4)cc3F)c12` [Example 48, (S)-2-amino-1-(3-((dimethylamino)methyl)azetidin-1-yl)-3-(3-fluoro-4-((3-methyl-1H-pyrrolo[2,3-b]pyridin-4-yl)oxy)phenyl)propan-1-one], the Ki on Rho kinase 2 (ROCK-II) and at Rho kinase 1 (ROCK-I) was under 3 nM in each case.
As to `CNC(=O)c1cccc(CN2CCN(C(=O)[C@@H](N)Cc3ccc(Oc4ccnc5[nH]cc(C)c45)c(F)c3)CC2)c1` [Example 165, (S)-3-((4-(2-amino-3-(3-fluoro-4-((3-methyl-1H-pyrrolo[2,3-b]pyridin-4-yl)oxy)phenyl)propanoyl)piperazin-1-yl)methyl)-N-methylbenzamide], the Ki on Rho kinase 2 (ROCK-II) and on Rho kinase 1 (ROCK-I) was under 3 nM throughout.
`Cc1c[nH]c2nccc(Oc3ccc(C[C@H](N)C(=O)NC4(CO)CCN(C)CC4)cc3F)c12` [Example 37, (S)-2-amino-3-(3-fluoro-4-((3-methyl-1H-pyrrolo[2,3-b]pyridin-4-yl)oxy)phenyl)-N-(4-(hydroxymethyl)-1-methylpiperidin-4-yl)propanamide]: the Ki at Rho kinase 2 (ROCK-II) and at Rho kinase 1 (ROCK-I) was under 3 nM each time.
As for `COCCCNC(=O)[C@@H](N)Cc1ccc(Oc2ccnc3[nH]cc(C)c23)cc1` [Example 87, (S)-2-amino-N-(3-methoxylpropyl)-3-(4-((3-methyl-1H-pyrrolo[2,3-b]pyridin-4-yl)oxy)phenyl)propanamide], the inhibitory constant (Ki) at Rho kinase 2 (ROCK-II) and on Rho kinase 1 (ROCK-I) was under 3 nM each time.
